Experimental findings from patent publication US5047404A, “Chemical compounds” (Smith Kline & French Laboratories, Ltd., priority 1988, dated 1991) are described below.

Assay [1] has as its system ovalbumen-induced bronchoconstrictor response. Nature of the assay: Anti-allergic activity: ovalbumen-induced bronchoconstrictor response in sensitised guinea-pigs. As to conditions: dose 28 μmol/kg i.v. bolus, ovalbumen 1 mg.kg^-1 i.v. challenge 30 min after drug. Format: in vivo, guinea-pigs (male Duncan Hartley). The procedure:
Male Duncan Hartley guinea-pigs (250-300 g) were sensitised to ovalbumen by i.p. injection of 2 ml of 50 mg.ml^-1 i.p. and 0.2 ml s.c. Three weeks later they were anaesthetised with 60 mg.kg^-1 sodium pentabarbitone. The trachea was cannulated and the animal respired at a rate of 40 breaths per minute and at an initial tracheal inflation pressure of 16 mmHg. Tracheal inflation pressure was measured by a transducer connected to a side arm of the respiration circuit. The carotid artery was cannulated for the measurement of blood pressure and the signal was used to trigger an instantaneous rate meter. A jugular vein was cannulated for the administration of drug and allergen. After surgery the animals were allowed to stabilise and the drug was administered i.v. as a bolus. Following this, ovalbumen 1 mg.kg^-1 was injected i.v. as the antigen challenge either 2, 15 or 30 minutes following drug treatment and the peak bronchoconstrictor response recorded. For the control group ovalbumen only was given. One ovalbumen challenge per guinea-pig was used and n=6 for each time point. The percentage increase in tracheal inflation pressure was calculated. The following results indicating an anti-allergic activity were obtained.

The target in assay [2] is calmodulin insensitive cyclic GMP phosphodiesterase (Homo sapiens, UniProt O76074). The assay can be described thus: Phosphodiesterase activity: inhibition of calmodulin insensitive cyclic GMP phosphodiesterase. Format: biochemical. As to conditions: procedure of European Patent Application No. 293063; read-out: IC50 (concentration of inhibitor required for 50% inhibition of enzyme activity).

The test system of assay [3] is hindquarter vascular resistance. The assay can be described thus: Vasodilatation in vivo: hindquarter blood flow, perfused hind quarters. Details: species or system rats (male Wistar). As to conditions: anaesthetised rats; bolus i.v., 10 μmol/kg. The procedure: Male Wistar rats (300 g) were anaesthetised with a sodium 5-ethyl-5-(I-methylpropyl)-2-thiobarbiturate/sodium pentobarbitone mixture i.p. (62.5 and 22.5 mg/kg respectively). The trachea was cannulated and the rats breathed spontaneously air enriched with O2 (5 ml/min). Blood pressure was recorded from a carotid artery and a jugular vein was cannulated for the administration of compounds. The temperature of the animal was maintained at 37° C. by the use of an electric blanket. […] The perfusion circuit was primed with 5% bovine serum albumin dissolved in 0.9% sodium chloride solution, pH adjusted to 7.4. Initially the pump rate was set between 10 and 15 ml/min to match the hind quarter perfusion pressure to that of the systemic circulation. Once set, the pressure remained unaltered for the rest of the experiment. A change in the speed of the pump (equivalent to hindquarter blood flow) was used to assess the changes in hindquarter vascular resistance.

For `CCCOc1ccccc1-c1nc2ncccc2c(=O)[nH]1` [Example 1, 2-(2-Propoxyphenyl)pyrido[2,3-d]pyrimid-4(3H)-one], in assay [1], the “% Inhibition of Control Bronchoconstrictor Response 30 min after drug administration” value is on record as 9%.

Take `CCCOc1ccccc1-c1nc2ncc(=O)[nH]c2c(=O)[nH]1` [Example 6, 2-(2-Propoxyphenyl)pteridin-4,6(3H,5H)-dione]: in assay [2], the IC50 fell in the range of 0.55 to 11.4 µM.

With `CCCOc1ccccc1-c1nc2[nH]c(=O)c(=O)[nH]c2c(=O)[nH]1` [Example 7, 2-(2-Propoxyphenyl)pteridin-4,6,7(3H,5H,8H)-trione], the IC50 in assay [2] lay in the range of 0.55 to 11.4 µM.

On to `CCCOc1ccccc1-c1nc2nnc(NC)nc2c(=O)[nH]1` [Example 10, 3-Methylamino-5,6-dihydro-5-oxo-7-(2-propoxyphenyl)pyrimido[5,4-e][1,2,4]triazine], for which the IC50 in assay [2] lay in the range of 0.55 to 11.4 µM.

In the case of `CCCOc1ccccc1-c1nc2nnc(OC)nc2c(=O)[nH]1` [Example 11, 3-Methoxy-5,6-dihydro-5-oxo-7-(2-propoxyphenyl)pyrimido[5,4-e][1,2,4]triazine], in assay [2], the IC50 fell in the range of 0.55 to 11.4 µM.

As for `CCCOc1ccccc1-c1nc2nc(SC)nnc2c(=O)[nH]1` [Example 12, 3-Methylthio-8-oxo 6-(2-propoxyphenyl)-7,8-dihydropyrimido[4,5-e][1,2,4]triazine], in assay [3], the “increase in hindquarter blood flow” value is listed as 38%.
